Test results: PMC6359713, “A Novel Dipeptidyl Peptidase IV Inhibitory Tea Peptide Improves Pancreatic β-Cell Function and Reduces α-Cell Proliferation in Streptozotocin-Induced Diabetic Mice” (International Journal of Molecular Sciences, 2019)
Entries after “also recorded” stand apart in the source; their conditions may differ.

Assays:
DPP-IV [1] = biological target: T1, DPP-IV (Homo sapiens, UniProt P27487); experiment: DPP-IV inhibitory assay (Gly-Pro p-nitroanilide); format: biochemical; details: n = 3; for DPP-IV inhibition, comparison among peptides I-IV: 62.5-1500 μg/mL
T1 construct: purchased Sigma-Aldrich D4943-1VL; host or cells: baculovirus-infected Sf9 insect cells
T1 sequence (P27487 whole entry): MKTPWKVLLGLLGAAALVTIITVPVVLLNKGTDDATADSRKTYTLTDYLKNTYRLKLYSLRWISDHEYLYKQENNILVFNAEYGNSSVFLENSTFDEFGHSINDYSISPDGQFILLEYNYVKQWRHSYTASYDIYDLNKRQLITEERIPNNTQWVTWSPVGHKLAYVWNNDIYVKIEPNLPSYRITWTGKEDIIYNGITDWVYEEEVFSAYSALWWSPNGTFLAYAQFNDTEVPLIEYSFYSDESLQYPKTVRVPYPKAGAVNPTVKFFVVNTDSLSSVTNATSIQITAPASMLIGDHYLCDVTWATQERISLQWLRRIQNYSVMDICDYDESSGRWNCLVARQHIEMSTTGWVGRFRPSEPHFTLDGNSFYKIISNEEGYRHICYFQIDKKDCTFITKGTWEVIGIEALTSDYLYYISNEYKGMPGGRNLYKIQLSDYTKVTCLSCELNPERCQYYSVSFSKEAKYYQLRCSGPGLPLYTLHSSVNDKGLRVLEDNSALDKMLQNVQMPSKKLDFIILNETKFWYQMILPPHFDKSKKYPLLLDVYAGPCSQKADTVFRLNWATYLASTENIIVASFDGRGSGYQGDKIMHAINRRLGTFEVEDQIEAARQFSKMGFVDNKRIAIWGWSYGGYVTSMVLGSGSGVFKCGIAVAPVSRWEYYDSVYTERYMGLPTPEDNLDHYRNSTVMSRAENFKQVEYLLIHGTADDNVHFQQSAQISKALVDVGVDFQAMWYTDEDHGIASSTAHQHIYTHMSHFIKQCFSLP
From the text: The enzyme, human recombinant DPP-IV (Lot: D4943-1VL), expressed in baculovirus-infected S/9 cells, the substrate, Gly-Pro p-nitroanilide (Gly-Pro pNA; Lot: G0513), and streptozotocin (STZ; Lot: V900890) were purchased from Sigma-Aldrich (St. Louis, MO, USA). […] Other reagents, such as Folin–Ciocalteu (Lot: 73104861), gallic acid (Lot: XW01499171), and Coomassie Blue R-250 (Lot: 71011381) were purchased from Sinopharm Chemical Reagent Co., Ltd. (Shanghai, China). Lapsang souchon (LS), a typical Chinese black tea, was obtained from a tea market in Hangzhou.
The DPP-IV inhibitory activities of the substance after ultrafiltration and the peptides identified (synthesized by Chinese Peptide Company, Hangzhou, China; purity of 96–97%) were evaluated. The DPP-IV inhibition assay was performed as described by Velarde-Salcedo et al., with slight modifications. The assay was performed in 96-well microplates, and 100 μL of enzyme (final concentration 1.9 U/L) was preincubated with the samples (the concentrated ultra-filtrate mentioned above and the synthesized peptide, with concentrations from 62.5–1500 μg/mL) at 37 °C for 15 min prior to the initiation of the reaction, by adding 50 μL of Gly-Pro p-nitroanilide (final concentration 0.29 mM). The final volume of the reaction system was 200 μL, and the reaction was conducted in 100 mM Tris-HCl buffer (pH 7.6). The absorbance was obtained at 405 nm in a microplate reader (Synergy H1, BioTek Instruments Inc., Winooski, VT, USA), after incubation at 37 °C for 1 h.

[2] = Plasma glucagon in STZ-induced hyperglycemic mice; format: in vivo, mouse (male ICR); details: peptide II 400 mg/kg or sitagliptin 4 mg/kg, gavage daily, day 57, vs STZ control
Experimental: (§1) Male ICR mice at the age of four weeks were obtained from the Laboratory Animal Center of Zhejiang University (Hangzhou, China) and housed under a 12 h light/dark cycle with free access to food and water. The animal protocol was approved by the Committee on the Ethics of Animal Experiments of Zhejiang University (Permit Number: SYXK 2018-0001, 3 January 2018), and all experiments were performed in accordance with Zhejiang University Laboratory Animal Center Guidelines and the Regulations for Laboratory Animals Care and Usage. The mice were divided into four groups: non-STZ, STZ, STZ plus sitagliptin, and STZ plus peptide II. The mice were injected with STZ (50 mg/kg) dissolved into sodium citrate buffer (pH 4.5) for three successive days to induce hyperglycemia. Every group contained 10 mice. […] The levels of HbA1c were measured using an automatic analyzer MQ-2000pt produced by Medconn Medical Technology Co. (Shanghai, China). Plasma insulin, glucagon, GLP-1, and DPP-IV concentrations were measured using a mouse ELISA kit (Shanghai Lengton Bioscience Co., Ltd., Shanghai, China).

[3] = Plasma insulin in STZ-induced hyperglycemic mice; format: in vivo, mouse (male ICR); details: for Blood insulin level: peptide II 400 mg/kg (n = 7) or sitagliptin 4 mg/kg (n = 6), mouse ELISA, STZ control 9.79 ± 3.62 mU/L, mean ± SD
Experimental: as §1

[4] = HbA1c in STZ-induced hyperglycemic mice; format: in vivo, mouse (male ICR); details: gavage daily, 57 days
Experimental: as §1

pancreatic alpha-cells = experiment: Islet alpha-cell (glucagon-positive) area in STZ-treated mice, immunohistochemistry; format: in vivo, mouse (male ICR); details: gavage daily; for Alpha-cell area / proliferation: peptide II 400 mg/kg (n = 7) or sitagliptin 4 mg/kg (n = 6), day 57, vs STZ control
Experimental: as §1, with “pancreases” for “levels of HbA1c”, “resected immediately after the mice were sacrificed and fixed in 4% (w/v) formaldehyde. The immunohistochemistry procedures were performed according to Y. Takeda et al.. The stained sections were observed by an inverted fluorescence microscopy (NIKON ECLIPSE TI-SR; Nikon Corporation, Tokyo, Japan), and digital images were collected” for “measured”, “Nikon imaging system (NIKON DS-U3).” for “an automatic analyzer MQ-2000pt produced by Medconn Medical Technology Co. (Shanghai, China). Plasma insulin, glucagon, GLP-1, and DPP-IV concentrations were measured using a mouse ELISA kit (Shanghai Lengton Bioscience Co., Ltd., Shanghai, China).”

[5] = Blood GLP-1 in STZ-induced hyperglycemic mice; format: in vivo, mouse (male ICR); details: gavage daily; for GLP-1 concentration vs STZ control, significance / GLP-1 concentration in blood: day 57; for GLP-1 concentration in blood: peptide II 400 mg/kg (n = 7) or sitagliptin 4 mg/kg (n = 6), mouse ELISA, STZ control 9.85 ± 1.96, normal control 15.52 ± 3.17 pmol/L, mean ± SD; for Increase in GLP-1 concentration vs STZ control: peptide II 400 mg/kg or sitagliptin 4 mg/kg, after 57 days
Experimental: as §1

pancreatic beta-cells = experiment: Islet beta-cell (insulin-positive) area and function in STZ-treated mice, immunohistochemistry; format: in vivo, mouse (male ICR); details: gavage daily; for Beta-cell area: peptide II 400 mg/kg (n = 7) or sitagliptin 4 mg/kg (n = 6), day 57, insulin-positive area per islet area
Experimental: as §1, with “pancreases” for “levels of HbA1c”, “resected immediately after the mice were sacrificed and fixed in 4% (w/v) formaldehyde. The immunohistochemistry procedures were performed according to Y. Takeda et al.. The stained sections were observed by an inverted fluorescence microscopy (NIKON ECLIPSE TI-SR; Nikon Corporation, Tokyo, Japan), and digital images were collected” for “measured”, “Nikon imaging system (NIKON DS-U3).” for “an automatic analyzer MQ-2000pt produced by Medconn Medical Technology Co. (Shanghai, China). Plasma insulin, glucagon, GLP-1, and DPP-IV concentrations were measured using a mouse ELISA kit (Shanghai Lengton Bioscience Co., Ltd., Shanghai, China).”

DPP-IV [6] = biological target: T1, DPP-IV; experiment: Enzyme kinetics, Lineweaver-Burk plot, mode of inhibition; format: biochemical; details: peptide II 0, 1.02 and 2.04 mM; Gly-Pro pNA 0.29-4.64 mM; Tris-HCl pH 7.6, 37 °C, 60 min, 405 nm
Experimental: The initial rate of hydrolysis of the substrate Gly-Pro p-nitroanilide by DPP-IV was measured using substrate concentrations of 0.29, 0.58, 1.16, 2.32, and 4.64 mM (final assay concentrations) in the absence (100 mM Tris-HCl buffer, pH 7.6) and presence of different concentrations of the peptide II (1.02 and 2.04 mM, respectively). The substrate (50 μL), with or without an inhibitor (50 μL), was pre-incubated at 37 °C for 15 min, and the reaction was started by the addition of 100 μL of the DPP-IV enzyme (final concentration: 1.9 U/L). The absorbance of the released p-nitroanilide was monitored at 37 °C and 405 nm for 60 min using a microplate reader (Synergy H1, BioTek Instruments Inc.). Lineweaver–Burk plots of DPP-IV activity in the absence and presence of peptide II were created to show the modes of inhibition.

| Compound | DPP-IV inhibition, comparison among peptides I-IV (DPP-IV [1]) | Plasma glucagon levels [2] | Blood insulin level ([3]; gavage daily, day 57) [mU/L] | Alpha-cell area / proliferation (pancreatic alpha-cells) | GLP-1 concentration vs STZ control, significance [5] | GLP-1 concentration in blood [5] [pmol/L] | Increase in GLP-1 concentration vs STZ control [5] [pmol/L] | Beta-cell area (pancreatic beta-cells) | also measured |
| --- | --- | --- | --- | --- | --- | --- | --- | --- | --- |
| IQDKEGIPPDQQR [IV] | surpassed by peptide II with increasing concentration |  |  |  |  |  |  |  |  |
| N[C@@H](CC(=O)N1CCn2c(nnc2C(F)(F)F)C1)Cc1cc(F)c(F)cc1F [sitagliptin, reference compound] |  | no amelioration of the glucagon levels | 27.35 ± 5.65 | suppressed | without any significant difference compared with the STZ control | 12.57 ± 3.38 | 2.7 | not obvious | HbA1c level ([4]; sitagliptin 4 mg/kg, n = 6, STZ control 7.30 ± 0.70%, mean ± SD): 5.98 ± 1.63%; Decrease of alpha-cell area vs STZ-treated mice (pancreatic alpha-cells; sitagliptin 4 mg/kg, day 57, glucagon-positive area per islet area, n = 6): 37.8% |
| AGFAGDDAPR [Peptide II] | much higher inhibitory activity at both low and high concentrations; also recorded: the greatest DPP-IV inhibitory activity | no amelioration of the glucagon levels | 42.30 ± 12.64 | suppressed proliferation of pancreatic alpha-cells; also recorded: lower than that in the STZ control group, but not significantly | significantly higher than that in STZ control | 19.22 ± 6.79 | 9.3 | not obvious | DPP-IV enzyme activity inhibited (DPP-IV [1]; 1000 μg/mL synthesized peptide, Tris-HCl pH 7.6, 37 °C, preincubation 15 min, 1 h, 405 nm): ~50%; Increase of plasma insulin level vs STZ control ([3]; peptide II 400 mg/kg or sitagliptin 4 mg/kg, gavage daily, 57 days): 4.3 fold; Insulin improvement compared with sitagliptin ([3]; peptide II 400 mg/kg vs sitagliptin 4 mg/kg, day 57): improved the insulin levels more effectively than sitagliptin; HbA1c level vs STZ control ([4]; peptide II 400 mg/kg, n = 7): did not show a significant difference in HbA1c levels compared to STZ control animals; Mode of DPP-IV inhibition (DPP-IV [6]): competitive inhibitory mode; Beta-cell proliferation / function (pancreatic beta-cells; peptide II 400 mg/kg, 57 days): improved function of pancreatic beta-cells; also recorded: only slight proliferation |
| IDESLR [Peptide III] |  |  |  |  |  |  |  |  | DPP-IV inhibition (DPP-IV [1]; 1500 μg/mL, compared among peptides I-IV): the lowest activity; DPP-IV inhibition (DPP-IV [1]; concentration below 1000 μg/mL): almost no inhibition |
| QTDEYGNPPR [Peptide I] | lower than peptide IV, but higher than peptide III |  |  |  |  |  |  |  |  |
